Measurements: patent US8367695B2, “Condensed tetrahydroquinoline derivative and use thereof for medical purposes” (Mitsubishi Tanabe Pharma Corporation, priority 2007, dated 2013)

The compounds below were run against T1, human recombinant glucocorticoids receptor (GR) (Homo sapiens, UniProt P04150) (assay: Radioactive ligand binding test, GR cytosol, [3H]-Dex). Conditions: not given.
T1 sequence (P04150 1-777): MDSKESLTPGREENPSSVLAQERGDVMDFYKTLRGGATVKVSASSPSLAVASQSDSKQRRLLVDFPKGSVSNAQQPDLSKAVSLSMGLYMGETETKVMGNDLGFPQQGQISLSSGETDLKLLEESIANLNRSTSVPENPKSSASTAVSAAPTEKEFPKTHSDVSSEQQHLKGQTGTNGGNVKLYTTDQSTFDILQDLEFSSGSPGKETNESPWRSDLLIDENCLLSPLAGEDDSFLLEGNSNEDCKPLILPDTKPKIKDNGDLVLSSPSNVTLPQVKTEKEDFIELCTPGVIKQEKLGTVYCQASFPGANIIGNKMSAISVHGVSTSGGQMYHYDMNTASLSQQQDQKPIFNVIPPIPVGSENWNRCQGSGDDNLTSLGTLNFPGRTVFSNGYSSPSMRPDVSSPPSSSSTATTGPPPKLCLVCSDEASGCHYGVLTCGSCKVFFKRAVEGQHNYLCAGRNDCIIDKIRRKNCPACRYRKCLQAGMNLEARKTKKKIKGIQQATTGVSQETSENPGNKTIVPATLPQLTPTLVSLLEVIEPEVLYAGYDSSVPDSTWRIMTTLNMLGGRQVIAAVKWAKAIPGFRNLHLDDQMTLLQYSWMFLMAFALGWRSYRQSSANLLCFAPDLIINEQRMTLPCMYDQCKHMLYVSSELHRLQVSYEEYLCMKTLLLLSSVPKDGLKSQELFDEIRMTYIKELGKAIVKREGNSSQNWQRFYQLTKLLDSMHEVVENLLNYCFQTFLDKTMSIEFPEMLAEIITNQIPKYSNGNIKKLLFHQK
Description: Radioactive Ligand Binding Test Using Cytosols of Human Glucocorticoids Receptor, Progesterone Receptor and Mineralocorticoid Receptor
Opthalmol. Vis. […] In brief, cytosol preparations of human recombinant glucocorticoids receptor (GR) and human recombinant progesterone receptor-B (PRB) were purchased from Invitrogen (Carlsbad, Calif.), and a cytosol preparation of human recombinant mineralocorticoid receptor (MR) was prepared by our company (Yokohama, JP). MR cDNA was cloned into a baculovirus expression vector and expressed in insect cell Sf9. […] [^3H]-Dexamethasone (Dex, specific activity 91.0 Ci/mmol) was purchased from GE Healthcare (Buckinghamshire, UK), and [^3H]-progesterone (Prog, specific activity 103 Ci/mmol) and [3H]-aldosterone (Ald, specific activity 87.9 Ci/mmol) were each purchased from PerkinElmer (Boston, Mass.). Polypropylene round-bottomed 96 well plate was obtained from ABgene (Epsom, UK). Dimethyl Sulfoxide (DMSO) and hydrochloric acid were obtained from Kanto Chemical (TOKYO, JP). Trizma Base (Tris), Bovine Serum Albumin (BSA) and Sodium tungstate dihydrate were obtained from Sigma Chemicals (St. Louis, Mo.). Dithiothreitol (DTT) and Dextran 70 were obtained from GE Healthcare (Buckinghamshire, UK). Glycerol was obtained from Junsei Chemical (TOKYO, JP). Norit® “SX-II” was obtained from Wako Pure Chemical Industries, Ltd. (Osaka, JP). MeltiLex™, A, Printed Filtermat A and Sample Bag were obtained from PerkinElmer (Boston, Mass.).
As a buffer for GR binding assay, 25 mM Tris-HCl (4° C., pH 7.4)/1 mM EDTA·2Na/1 mM DTT/0.1% BSA was prepared and used. As buffers for PRB and MR binding assay, 10 mM Tris-HCl (4° C., pH 7.4)/1 mM DTT/0.1% BSA/10% glycerol and 20 mM Tris-HCl (4° C., pH 7.4)/1 mM EDTA·2Na/10% glycerol/20 mM sodium tungstate were respectively prepared and used.
Compound storage solutions (5-20 mM) were prepared using DMSO. The storage solutions were diluted with DMSO to 0.1 mM (for GR) and 0.3 mM (for PRB and MR), and further diluted 20-fold with distilled water to give solutions. Then, the preparations were diluted to each concentration with 5% DMSO solution. 1% DMSO was present at the time of the binding assay.
GR, PRB and MR binding reactions were performed in 96 well plate (ABgene). In the case of GR binding assay, [^3H]-Dex (about 5 nM), GR cytosol (concentration of function receptor: about 4 pmol/mL), a test compound and a binding buffer were mixed in a total volume of 50 μL, and the mixture was stood at 4° C. for 30 min or longer. A specific binding was defined to be the difference in the [^3H]-Dex binding between the presence and the absence of 1 μM unlabeled Dex.
After the reaction, 50 μL of DCC was added to each well and blended. Thereafter, the mixture was stood at 4° C. for 10 min. The plate was applied to high-speed cooling centrifuge under the conditions of 4° C., 2000 rpm, 5 min to perform B/F separation. A given amount of the supernatant was recovered, which was spotted on Filtermat A of 96 well format (PerkinElmer) and rapidly dried at a high temperature.
Measurement of Inhibition Constant (Ki)
Ki of the test compound was determined by the following Cheng-Prusoff equation: Ki=IC50/(1+[L*]/Kd) • wherein L* is a concentration of radioactive ligand and Kd is a dissociation constant for radioactive ligand determined by saturation analysis.

| SMILES | Ki |
| --- | --- |
| C=CCC1(C)C(=O)C(C)(C)Nc2c1cc(-c1cccc3cc[nH]c13)c1c2OCO1 (stereo not drawn) [Example 78, 6-allyl-4-(1H-indol-7-yl)-6,8,8-trimethyl-6,7,8,9-tetrahydro-[1,3]dioxolo[4,5-h]quinolin-7-one] | 80 nM |

Same assay, conditions: [3H]-Dex about 5 nM, GR cytosol, 4° C.; Cheng-Prusoff, Kd about 3.1 nM; read-out: GR (Ki: nM)

| SMILES | Ki |
| --- | --- |
| Cc1noc(C)c1-c1cc2c(c3c1CCC3)NC(C)(C)C(=O)C2(C)C [Example 2, 6-(3,5-dimethylisoxazol-4-yl)-2,2,4,4-tetramethyl-2,3,4,7,8,9-hexahydro-1H-cyclopenta[h]quinolin-3-one] | 15 nM |
| Cc1nnn(C)c1-c1cc2c(c3c1CCC3)NC(C)(C)C(=O)C2(C)C [Example 4, 6-(3,5-dimethyl-3H-[1,2,3]triazol-4-yl)-2,2,4,4-tetramethyl-2,3,4,7,8,9-hexahydro-1H-cyclopenta[h]quinolin-3-one] | 53 nM |
| CC1(C)Nc2c(cc(-c3ccnc4cc[nH]c34)c3c2CCC3)C(C)(C)C1=O [Example 13, 2,2,4,4-tetramethyl-6-(1H-pyrrolo[3,2-b]pyridin-7-yl)-2,3,4,7,8,9-hexahydro-1H-cyclopenta[h]quinolin-3-one] | 54 nM |
| CC1(C)Nc2c(cc(-c3cccc4nccn34)c3c2CCC3)C(C)(C)C1=O [Example 14, 6-(imidazo[1,2-a]pyridin-5-yl)-2,2,4,4-tetramethyl-2,3,4,7,8,9-hexahydro-1H-cyclopenta[h]quinolin-3-one] | 11 nM |
| CC1(C)Nc2c(cc(-c3cccc4nncn34)c3c2CCC3)C(C)(C)C1=O [Example 17, 2,2,4,4-tetramethyl-6-([1,2,4]triazolo[4,3-a]pyridin-5-yl)-2,3,4,7,8,9-hexahydro-1H-cyclopenta[h]quinolin-3-one] | 53 nM |
| CC1(C)Nc2c(cc(-c3cccc4ncccc34)c3c2CCC3)C(C)(C)C1=O [Example 20, 2,2,4,4-tetramethyl-6-(quinolin-5-yl)-2,3,4,7,8,9-hexahydro-1H-cyclopenta[h]quinolin-3-one] | 70 nM |
| CC1(C)Nc2c(cc(-c3ccnc4ncccc34)c3c2CCC3)C(C)(C)C1=O [Example 21, 2,2,4,4-tetramethyl-6-([1,8]naphthyridin-4-yl)-2,3,4,7,8,9-hexahydro-1H-cyclopenta[h]quinolin-3-one] | 35 nM |
| C=C1C(C)(C)Nc2c(cc(-c3c(C)ncn3C)c3c2CCC3)C1(C)C [Example 29, 6-(3,5-dimethyl-3H-imidazol-4-yl)-2,2,4,4-tetramethyl-3-methylene-2,3,4,7,8,9-hexahydro-1H-cyclopenta[h]quinoline] | 58 nM |
| C=CCC1(C)C(=O)C(C)(C)Nc2c1cc(-c1ccc(O)cc1C)c1c2CCC1 (stereo not drawn) [Example 50, 4-allyl-6-(4-hydroxy-2-methylphenyl)-2,2,4-trimethyl-2,3,4,7,8,9-hexahydro-1H-cyclopenta[h]quinolin-3-one] | 97 nM |
| C=CCC1(C)C(=O)C(C)(C)Nc2c1cc(-c1c(C)noc1C)c1c2CCC1 (stereo not drawn) [Example 51, 4-allyl-6-(3,5-dimethylisoxazol-4-yl)-2,2,4-trimethyl-2,3,4,7,8,9-hexahydro-1H-cyclopenta[h]quinolin-3-one] | 17 nM |
| C=CCC1(C)C(=O)C(C)(C)Nc2c1cc(-c1cccc3nccn13)c1c2CCC1 (stereo not drawn) [Example 57, 4-allyl-6-(imidazo[1,2-a]pyridin-5-yl)-2,2,4-trimethyl-2,3,4,7,8,9-hexahydro-1H-cyclopenta[h]quinolin-3-one] | 14 nM |
| CCC1(C)C(=O)C(C)(C)Nc2c1cc(-c1cccc3nccn13)c1c2CCC1 (stereo not drawn) [Example 58, 4-ethyl-6-(imidazo[1,2-s]pyridin-5-yl)-2,2,4-trimethyl-2,3,4,7,8,9-hexahydro-1H-cyclopenta[h]quinolin-3-one] | 12 nM |
| CC#CCC1(C)C(=O)C(C)(C)Nc2c1cc(-c1cccc3nccn13)c1c2CCC1 (stereo not drawn) [Example 63, 4-(2-butynyl)-6-(imidazo[1,2-a]pyridin-5-yl)-2,2,4-trimethyl-2,3,4,7,8,9-hexahydro-1H-cyclopenta[h]quinolin-3-one] | 27 nM |
| Cc1noc(C)c1-c1cc2c(c3c1OCO3)NC(C)(C)C(=O)C2(C)C [Example 69, 4-(3,5-dimethylisoxazol-4-yl)-6,6,8,8-tetramethyl-6,7,8,9-tetrahydro-[1,3]dioxolo[4,5-h]quinolin-7-one] | 55 nM |
| CC1(C)Nc2c(cc(-c3cccc4nccn34)c3c2OCO3)C(C)(C)C1=O [Example 71, 4-(imidazo[1,2-a]pyridin-5-yl)-6,6,8,8-tetramethyl-6,7,8,9-tetrahydro-[1,3]dioxolo[4,5-h]quinolin-7-one] | 59 nM |
| CC1(C)Nc2c(cc(-c3cccc4ncccc34)c3c2OCO3)C(C)(C)C1=O [Example 72, 6,6,8,8-tetramethyl-4-(quinolin-5-yl)-6,7,8,9-tetrahydro-[1,3]dioxolo[4,5-h]quinolin-7-one] | 96 nM |
| CC1(C)Nc2c(cc(-c3cccc4nccn34)c3c2OC(F)(F)O3)C(C)(C)C1=O [Example 82, 2,2-difluoro-4-(imidazo[1,2-a]pyridin-5-yl)-6,6,8,8-tetramethyl-6,7,8,9-tetrahydro-[1,3]dioxolo[4,5-h]quinolin-7-one] | 47 nM |
| Cc1noc(C)c1-c1cc2c(c3c1OCC3)NC(C)(C)C(=O)C2(C)C [Example 84, 6-(3,5-dimethylisoxazol-4-yl)-2,2,4,4-tetramethyl-1,2,3,4,8,9-hexahydro-furo[2,3-h]quinolin-3-one] | 27 nM |
| CC1(C)Nc2c(cc(-c3cccc4nccn34)c3c2CCO3)C(C)(C)C1=O [Example 88, 6-(imidazo[1,2-a]pyridin-5-yl)-2,2,4,4-tetramethyl-1,2,3,4,8,9-hexahydro-furo[2,3-h]quinolin-3-one] | 19 nM |
| CC1(C)Nc2c(cc(-c3ccnc4ncccc34)c3c2CCO3)C(C)(C)C1=O [Example 92, 2,2,4,4-tetramethyl-6-([1,8]naphthyridin-4-yl)-1,2,3,4,8,9-hexahydro-furo[2,3-h]quinolin-3-one] | 64 nM |
| Cc1onc(CO)c1-c1cc2c(c3ccoc13)NC(C)(C)C(=O)C2(C)C [Example 94, 6-(3-hydroxymethyl-5-methylisoxazol-4-yl)-2,2,4,4-tetramethyl-1,2,3,4-tetrahydro-furo[2,3-h]quinolin-3-one] | 11 nM |
| CC1(C)Nc2c(cc(-c3cccc4nccn34)c3occc23)C(C)(C)C1=O [Example 98, 6-(imidazo[1,2-a]pyridin-5-yl)-2,2,4,4-tetramethyl-1,2,3,4-tetrahydro-furo[2,3-h]quinolin-3-one] | 15 nM |
| CC1(C)Nc2c(cc(-c3cncc4nccn34)c3occc23)C(C)(C)C1=O [Example 100, 6-(imidazo[1,2-a]pyrazin-5-yl)-2,2,4,4-tetramethyl-1,2,3,4-tetrahydro-furo[2,3-h]quinolin-3-one] | 85 nM |
